Measurements as given in publication PMC9144936, “New Cu^+2 Complexes with N-Sulfonamide Ligands: Potential Antitumor, Antibacterial, and Antioxidant Agents” (Molecules, 2022).

Tests used:
Format in all cases: cell-based
[1] = test system: Bacillus cerreus ATCC 14579; test: Disk diffusion method, B. cerreus; settings: complexes 5 µL of 1 mg/mL; 25 µg Amoxicillin, 5 µg Norfloxacin; 24 h, 37 °C
Text: The disk diffusion method was used to determine the antibacterial activity of the C1 and C2 copper complexes on four reference microbial strains, two Gram-positive (Staphylococcus aureus and Bacillus cerreus) and two Gram-negative (Escherichia coli and Pseudomonas aeruginosa) strains. The disk diffusion method was used to determine the antibacterial activity of the C1 and C2 copper complexes. The method was adapted for the purposes of the current study, according to the standards developed by the Clinical and Laboratory Standards Institute. Four reference microbial strains, two Gram-positive (Staphylococcus aureus ATCC […] and Bacillus cerreus ATCC 14579) and two Gram-negative (Escherichia coli ATCC 10536 and Pseudomonas aeruginosa ATCC 27853) strains, were used for in vitro susceptibility testing. These reference microbial strains were obtained from the American Type Culture Collection (ATCC, Manassas, VA, USA). As positive controls, Amoxicillin (Oxoid Ltd., Basingstoke, UK) and Norfloxacin (Sigma-Aldrich) were used. For each of the four species, an initial suspension of bacterial cultures was inoculated on nutrient agar plates (Merck KGaA, Darmstadt, Germany), incubated for 24 h at 37 ± 2 °C and resuspended in a physiological saline buffer to a […] concentration (on a 0.5 McFarland scale), and further inoculated on Muëller Hinton agar plates (Merck KGaA, Darmstadt, Germany). […] After inoculation, the medium surface was dried and 8 wells were radially drilled 1.5 cm from the outer edge, 3 cm apart. From aliquot samples of 1 mg/mL of each copper complex dissolved in DMSO and incorporated in sterile liquid medium, 5 μL was placed in each of the 8 wells and left for 30 min to diffuse into the agar plates. The plates were then incubated for 24 h at 37 ± 2 °C. Then, 25 μg Amoxicillin and 5 μg Norfloxacin served as a positive controls, while DMSO 0.75% was used as a negative control. Readings were conducted by measuring the diameter of the inhibition zone (Halo Zone Test, in mm). The germ sensitivity of the copper complexes was estimated by comparing the diameter of the inhibition area to that generated by the regular antibiotics with known inhibition values. […] All tests were triplicated, and the measured diameters of the inhibition zone were expressed (in mm) as mean ± standard deviation.

[2] = test system: Staphylococcus aureus ATCC 6538P; test: MIC, serial broth microdilution, S. aureus; settings: 24 h, 37 °C
Protocol: (§1) The values of MIC, defined as the lowest concentration of antimicrobial complex that prevents visible growth of germs, are presented in Table S4 in the Supplementary Material. To quantify the copper complexes effectiveness as antibacterial agents, their minimum inhibitory concentrations (MICs) were determined using the serial broth microdilution method described by Quinn et al. and Markey et al.. The method was adapted for the purposes of the current study, according to the standards developed by the Clinical and Laboratory Standards Institute. The tests were performed on the same Gram-positive and Gram-negative reference microbial strains. Ten successive dilutions of the copper complexes solutions (1/2 to 1/1024) in nutrient broth (Merck KGaA, Darmstadt, Germany) were performed and then were placed in sterile microplates (one each for every copper complex). The microplates were incubated at 37 ± 2 °C for 24 h. Comparisons of the amount of bacterial growth in each well containing copper complexes solutions with the amount of growth in the growth control wells were performed and the maximal dilution for which the tested copper complexes inhibited bacterial growth was determined.

[3] = test system: human cervical carcinoma line (HeLa); test: MTT cytotoxicity assay, HeLa; settings: HeLa cells
Protocol: (§2) Three cell lines were used to determine the cytotoxicity of the complexes, a human cervical carcinoma line (HeLa), a human radical growth phase melanoma cell line (WM35), and a normal fibroblastic epithelial cell line (HFL1) using the MTT method. The cells were exposed to C1 and C2 complexes in different concentrations (50, 25, 12.5, 2, and 0.2 µM) at 24, 48, and 72 h. As positive contro, cisplatin was used.
(§3) To determine the cytotoxicity of the copper complexes, three cell lines were used: a human cervical carcinoma line (HeLa), a human radical growth phase melanoma cell line (WM35), and a normal fibroblastic epithelial cell line (HFL1). The cell lines were obtained from ATCC (American Type Cell Collection, Manassas, VA 20110-2209, USA) and were maintained in DMEM (Sigma-Aldrich, Saint Louis, Missouri, USA) supplemented with 10% fetal bovine serum (Hyclone), 1 mM glutamine (Sigma-Aldrich), and 1% antibiotic antimycotic 100× (Sigma-Aldrich). The cells were cultured at 37 °C in an atmosphere of 5% CO2 and 95% relative humidity.
(§4) The cytotoxicity assays were performed using the MTT assay (3-(4,5-dimethylthiazol-2-yl)-2,5-diphenyl tetrazolium bromide-Sigma Aldrich). Cells were plated at a density of 1 × 10^5 cells/well in 96-well plates for 24 h in normal propagation media. The cultures were then exposed to C1 and C2 complexes in different concentrations (50, 25, 12.5, 2, and 0.2 µM). The complexes were first solubilized in DMSO (Sigma) and then serial dilutions in media were performed until the final concentration of DMSO was less than 1%. As a positive control, cisplatin (Ebewe Pharma Ges.m.b.H. Nfg. KG, Austria) was used, in the same concentrations as the complexes. As a negative control, cell lines cultivated in normal expansion medium with the same amount of DMSO added were used. The cellular viability was determined using the MTT assay at 24, 48, and 72 h, respectively. Formazan particles were solubilized with DMSO and absorbances were determined at 550 nm using a microplate reader (Bio-Rad, Hercules, CA, USA). The cytotoxic activity, expressed as IC50 values representing the complex solution required to inhibit 50% of the cell proliferation, were calculated from the calibration curve by nonlinear regression. Each experiment was carried out in triplicate.

[4] = test system: human radical growth phase melanoma cell line (WM35); test: MTT cytotoxicity assay, WM35; settings: for IC50: WM35 cells, MTT
Protocol: as §2, §3, §4

[5] = test system: Escherichia coli ATCC 10536; test: MIC, serial broth microdilution, E. coli; settings: 24 h, 37 °C
Protocol: as §1

[6] = test system: Pseudomonas aeruginosa ATCC 27853; test: MIC, serial broth microdilution, P. aeruginosa; settings: 24 h, 37 °C
Protocol: as §1

| Substance | Halo Zone Test (diameter of the inhibition zone) [1] | MIC [2] | IC50 ([3]; 24 h) | IC50 ([3]; 48 h) | IC50 ([3]; 72 h) | IC50 ([4]; 24 h) | IC50 ([4]; 48 h) | IC50 ([4]; 72 h) | MIC [5] | MIC [6] | IC50 value compared with cisplatin ([4]; WM35 cell lines, 24 h) |
| --- | --- | --- | --- | --- | --- | --- | --- | --- | --- | --- | --- |
| [Cu(N-(5-(4-Methylphenyl)-[1,3,4]-Thiadiazole-2-yl) Naphtalenesulfonamidate)2(H2O)3] [C1] | 11 ± 0.25 mm | 0.289 µg/mL | 33.18 ± 0.19 µM | 16.36 ± 0.12 µM | 6.47 ± 0.06 µM | 41.35 ± 0.19 µM | 23.87 ± 0.17 µM | 15.42 ± 0.08 µM | 0.231 µg/mL | 0.196 µg/mL | – |
| [Cu(N-(5-Ethyl--[1,3,4]-Thiadiazole-2-yl) Naphtalenesulfonamidate)2(py)2(H2O)] [C2] | 12 ± 0.34 mm | 0.202 µg/mL | 8.79 ± 0.21 µM | 4.06 ± 0.05 µM | 1.45 ± 0.09 µM | 13 ± 0.15 µM | 8.11 ± 0.13 µM | 4.66 ± 0.07 µM | 0.184 µg/mL | 0.089 µg/mL | about two times lower |
